# In patent US12636274B2, “Pharmaceutical compositions and methods for systemic treatment of solid tumors” (7 HILLS INTERESTS LLC, priority 2014, dated 2026):
# Test system: VCAM-1
# Experiment: Cell migration across VCAM-1 membrane toward SDF-1
# Type: cell-based
# Conditions: FIG. 5; different concentrations; SDF-1 in bottom part
# Description: Referring now to FIG. 5, an apparatus for testing VCAM-1 and ICAM-1 cell migration, where the cells are initially placed in the top part of the apparatus including a member including VCAM-1 or ICAM-1, with the bottom part of the apparatus initially including SDF-1. Cell migration is then measured from top part to the bottom part for different concentration of CDPD 1, a compound of Formula (I) of VCAM-1 and ICAM-1 impregnated membrane.
smiles,measurement,value
"O=C(OCCOCCOCCOC(=O)N(Cc1cccs1)Cc1cccs1)N(Cc1cccs1)Cc1cccs1 [Compound 1, 3-oxo-1-(2-thienyl)-2-(2-thienylmethyl)-4,7,10-trioxa-2-azadodecan-12-yl bis(2-thienylmethyl)carbamate]","cell migration, VCAM-1",migration enhancement
